Data from US20200383959A1, “THERAPEUTIC AGENT CONTAINING PYRANODIPYRIDINE COMPOUND” (Eisai R&D Management Co., Ltd., priority 2017, published 2020).

Columns and labels:
[1] = system: AMPA receptor; test: AMPA-induced intraneuronal calcium entry-suppressing action, primary culture of embryonic rat cerebral cortex neurons; format: cell-based; details: AMPA-induced increase of intracellular calcium, rat cortical neurons; read-out: IC50 for AMPA inhibition
From the text: [Test Example 1] AMPA-Induced Intraneuronal Calcium Entry-Suppressing Action
With regard to the AMPA receptor inhibitory action of the compounds, AMPA-induced intraneuronal calcium entry-suppressing action was examined using a primary culture system of embryonic rat cerebral cortex neurons.
<Culture conditions> Whole fetuses were removed from the uteri of Wistar rats at embryonic day 18 (Charles River Japan) anesthetized with isoflurane. Whole brains were removed from the whole fetuses, and the cerebral cortex was separated in Leibovitz's L-15 medium, or Hanks balanced salt solution containing 20% fetal bovine serum. The resulting material was treated with trypsin/DNase solution at 37° C. for 45 to 60 minutes. After the serum was added to stop the trypsin reaction, the resulting material was centrifuged at 1200 to 1500 rpm for 3 to 5 minutes. After the supernatant was removed, Neurobasal medium (containing 2% B-27 supplement and the like; hereinafter “Neurobasal medium”) was added, and the cells were uniformly dispersed by gently pipetting. The cell suspension was slightly stirred, and then filtered through a nylon mesh filter. Viable cells were counted using a hemocytometer, and diluted with Neurobasal medium to 8 to 10×10^5 cells/mL. […]
On the day of the assay, the medium was removed and replaced with a calcium measurement solution containing 5 to 10 μmol/L of Fura 2-AM (140 mmol/L sodium chloride, 5 mmol/L potassium chloride, 2 mmol/L magnesium chloride, 3 mmol/L calcium chloride, 24 mmol/L D(+)-glucose, 10 mmol/L HEPES, 1 μmol/L MK-801, pH 7.4), and the cells were treated in a CO2 incubator (5% CO2, 37° C.) for 1 to 2 hours. […] The plates were subsequently placed on the Fluorescence Drug Screening System 6000 (Hamamatsu Photonics K.K.). […] Changes in calcium concentration were measured as the changes in fluorescence intensity at excitation wavelengths of 340 nm and 380 nm (measurement wavelength: 540 nm). The rate of change of the intracellular calcium concentration was calculated in accordance with the following equation: […]

[2] = system: tremor induced by harmaline; test: Rat harmaline model (balance disorder / tremor score); format: in vivo; details: for Tremor score: 20 min before harmaline 20 mg/kg i.p., score 0-3
Experimental: [Test Example 2] Rat Harmaline Model
To confirm tremor-suppressing effect, a harmaline model test with rats was conducted. In this model, balance disorder observed after administration of harmaline serves as an evaluation index (Neuroscience Letter, 590, p 84-90 (2015)).
Four-week-old male SD rats (Charles River) were subjected to the test (two treatments in total, n=5 in each treatment). Balance disorder (one of tremor symptoms) induced by harmaline was used as an evaluation index (the above literature).
The compound was prepared for oral administration in 0.4% methylcellulose/5% Cremophor/5% 1 N hydrochloric acid/10% dimethylsulfoxide solution to reach an administration volume of 5 mL/kg, and orally administered. As a negative control, only the mixed solvent without the compound (Vehicle) was used. Harmaline (Sigma-Aldrich Co. LLC) was diluted with physiological saline (Otsuka Pharmaceutical Co., Ltd.) to prepare 4 mg/mL harmaline solution. Twenty minutes after administration of the compound, the 4 mg/mL harmaline solution was intraperitoneally administered (dose: 20 mg/kg). Balance disorder was observed during 10 minutes from 5 minutes to 15 minutes after the administration of harmaline, and scored in four grades of 0, 1, 2, and 3.
The results were represented as mean±standard deviation. Dunnett's multiple comparison test was used for statistical analysis, and results with p<0.05 were determined to be of statistically significant difference.

[3] = system: pain induced by STZ; test: Rat STZ model, von Frey test; format: in vivo
Experimental: [Test Example 3] Rat STZ Model
To confirm analgesic effect in an SFN model, an STZ model test with rats was conducted. The effect of the compound on pain induced 2 weeks after administration of STZ was examined.
Seven-week-old male SD rats (Charles River) were used for the test. To STZ aliquoted in advance into shading bottles, ice-cooled physiological saline (Otsuka Pharmaceutical Factory, Inc.) was added to reach 65 mg/mL, and the resultant was gently inversion-mixed with ice-cooling to dissolve STZ. After dissolving, the resultant was stored under ice-cooling, and used within 20 minutes from the initiation of preparation. About 20 hours after fasting, the animals were anesthetize with isoflurane, and the 65 mg/mL STZ solution was administered to each animal from the tail vein with a volume of […] over about 15 seconds by using a 1 mL syringe and a 26G injection needle. After 14 days after the administration of STZ, body weight and pain response before drug administration were measured (see description below on pain response), and animals for each of which the 50% response threshold to mechanical stimulation was 6 g or lower in von Frey test were selected, and grouped so as to provide no difference in 50% response thresholds and body weight among groups.
The compound was prepared for oral administration in DMSO:1 mol/L HCl:Cremophor EL:0.5% methylcellulose=10:5:5:80 to reach an administration volume of 10 mL/kg, and orally administered. As a negative control, only the mixed solvent without the compound (Vehicle) was used.
Evaluation of pain response was performed by using von Frey test under blind conditions, without involving any measurer for pain response in grouping and administration. Measurement of 50% response thresholds by von Frey test was performed in accordance with a method by Chaplan et al. (J Neurosci Methods 1994; 53: 55-63) using von Frey filaments. Each animal was put in a measurement cage with a floor of a metal mesh about 30 minutes before scheduled measurement time, and left to stand to habituate to the environmental change, and after the animal was confirmed to become calm measurement was initiated. Avon Frey filament (bending force: 0.4, 0.6, 1, 2, 4, 6, 8, 15 g; starting from 2 g) was pressed vertically to the center of the sole of the left hind leg for about 6 seconds until the filament bent, and avoidance response (such as putting back the leg) was observed. In accordance with a Dixon's up-down method (Annu Rev Pharmacol Toxicol 1980; 20: 441-462), 50% response thresholds were calculated. Measurement was performed at four points of time: before drug administration on Day 14, and 30 minute, 90 minutes, and 180 minutes after the administration.
The results were represented as mean±standard deviation. Dunnett's multiple comparison test was used for statistical analysis, and a significance level of 5% was used for both sides in all cases.

[4] = system: human glioma cell line; details: Non Patent Literature 34; cited from earlier work
[5] = system: hyperalgesia to mechanical stimulation in STZ models; details: direct administration to the anterior cingulate cortex; Non Patent Literature 16; cited from earlier work
[6] = system: tremor in a harmaline animal model; details: Non Patent Literature 7; cited from earlier work
[7] = system: dystonia in the dt^sz model; details: Non Patent Literature 21; cited from earlier work
[8] = pre-administration, statement in words

**Q.** For `N#Cc1c(F)cccc1-c1cc2c(n(-c3cccnc3)c1=O)COc1cc(F)cnc1-2` [Compound (I), 2-fluoro-6-(3-fluoro-8-oxo-7-(pyridin-3-yl)-7,8-dihydro-6H-pyrano[3,2-b:5,4-b′]dipyridin-9-yl)benzonitrile], which IC50 [1] is on record?
**A.** 19.4 nM

**Q.** And the Tremor score ([2]; 1 mg/kg oral)?
**A.** 1.3 ± 0.2

**Q.** And the Tremor score ([2]; 2 mg/kg oral)?
**A.** 0.6 ± 0.3

**Q.** What about the Tremor score ([2]; 4 mg/kg oral) of the same compound?
**A.** 0.4 ± 0.2

**Q.** What about the “Effect on tremor scores” value [2, 8] of the same compound?
**A.** statistically significant reduction of tremor scores

**Q.** What about the 50% response threshold ([3]; 0.6 mg/kg oral, Day 14, 30 min) of the same compound?
**A.** 7.3 ± 1.4 g

**Q.** What about the 50% response threshold ([3]; 0.6 mg/kg oral, Day 14, 90 min) of the same compound?
**A.** 6.6 ± 1.4 g

**Q.** And the 50% response threshold ([3]; 0.6 mg/kg oral, Day 14, 180 min)?
**A.** 5.2 ± 1.1 g

**Q.** And the 50% response threshold ([3]; 0.6 mg/kg oral, Day 14, Pre (before drug administration))?
**A.** 3.6 ± 0.4 g

**Q.** What about the 50% response threshold ([3]; 2 mg/kg oral, Day 14, 30 min) of the same compound?
**A.** 9.5 ± 1.4 g

**Q.** What about the 50% response threshold ([3]; 2 mg/kg oral, Day 14, 90 min) of the same compound?
**A.** 8.0 ± 1.3 g

**Q.** And the 50% response threshold ([3]; 2 mg/kg oral, Day 14, 180 min)?
**A.** 6.4 ± 1.1 g

**Q.** What about the 50% response threshold ([3]; 2 mg/kg oral, Day 14, Pre (before drug administration)) of the same compound?
**A.** 3.6 ± 0.3 g

**Q.** And the 50% response threshold ([3]; 6 mg/kg oral, Day 14, 30 min)?
**A.** 12.5 ± 1.1 g

**Q.** What about the 50% response threshold ([3]; 6 mg/kg oral, Day 14, 90 min) of the same compound?
**A.** 12.1 ± 1.5 g

**Q.** What about the 50% response threshold ([3]; 6 mg/kg oral, Day 14, 180 min) of the same compound?
**A.** 9.6 ± 1.4 g

**Q.** And the 50% response threshold ([3]; 6 mg/kg oral, Day 14, Pre (before drug administration))?
**A.** 3.6 ± 0.4 g

**Q.** What about the Analgesic effect [3, 8] of the same compound?
**A.** Significant analgesic effect

**Q.** Which Antitumor effect [4] does the source give for `O=C(O)Cn1c(=O)c(=O)[nH]c2cc([N+](=O)[O-])c(-n3ccnc3)cc21` [YM872] here?
**A.** antitumor effect

**Q.** For `N#Cc1c(F)cccc1-c1cc2c(n(-c3cncnc3)c1=O)COc1cccnc1-2` [Compound (II), 2-fluoro-6-(8-oxo-7-(pyrimidin-5-yl)-7,8-dihydro-6H-pyrano[3,2-b:5,4-b′]dipyridin-9-yl)benzonitrile], which IC50 [1] is on record?
**A.** 29 nM

**Q.** With `Cc1ncc(-n2c3c(cc(-c4cccc(F)c4C#N)c2=O)-c2ncccc2OC3)cn1` [Compound (III), 2-fluoro-6-(7-(2-methylpyrimidin-5-yl)-8-oxo-7,8-dihydro-6H-pyrano[3,2-b:5,4-b′]dipyridin-9-yl)benzonitrile] as the compound, how does the IC50 [1] read?
**A.** 44.3 nM

**Q.** With `N#Cc1cc2c(cc1[N+](=O)[O-])=NC(=O)C(=O)N=2` [CNQX, 6-cyano-7-nitroquinoxaline-2,3-dione] as the compound, how does the “Effect on fever and hyperalgesia to mechanical stimulation” value [5] read?
**A.** suppressed

**Q.** What does the source list for `NS(=O)(=O)c1cccc2c1c([N+](=O)[O-])cc1[nH]c(=O)c(=O)[nH]c12` [NBQX, 2,3-dioxo-6-nitro-1,2,3,4-tetrahydrobenzo[f]quinoxaline-7-sulfonamide]?
**A.** Effect on tremor [6]: suppresses tremor; Anti-dystonia action [7]: anti-dystonia action
